From patent US20250099448A1, “HETEROCYCLIC COMPOUNDS” (Hoffmann-La Roche Inc., priority 2022, published 2025)

Biological target: T1, MAGL protein (Homo sapiens, UniProt Q99685)
T1 sequence (Q99685 1-303): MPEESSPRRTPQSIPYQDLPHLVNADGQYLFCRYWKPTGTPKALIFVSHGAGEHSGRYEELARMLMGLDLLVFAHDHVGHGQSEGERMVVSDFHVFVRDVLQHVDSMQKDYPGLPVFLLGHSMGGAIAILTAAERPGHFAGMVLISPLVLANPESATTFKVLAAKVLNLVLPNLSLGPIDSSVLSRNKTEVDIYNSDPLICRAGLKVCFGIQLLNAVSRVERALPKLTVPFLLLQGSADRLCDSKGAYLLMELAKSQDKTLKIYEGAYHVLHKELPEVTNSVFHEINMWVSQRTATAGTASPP
Assay: 2-AG assay: MAGL inhibitory activity by hydrolysis of 2-arachidonoylglycerol to arachidonic acid, followed by mass spectrometry
Assay type: biochemical
Settings: 8 μM 2-arachidonoylglycerol, 15 min preincubation, 30 min reaction at RT, RapidFire MS readout
Procedure, shortened: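 Activity was measured by RapidFire SPE–triple-quad MS as the ratio of arachidonic acid to d8-arachidonic acid after 2-AG hydrolysis (8 μM substrate, 30 min, RT, acetonitrile quench). Compounds, tested from 12.5 μM down to […], were first preincubated 15 min with MAGL in TRIS/EDTA/Tween-20 buffer containing 2.5% DMSO.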

Structure (SMILES) | IC50 [nM]
N#Cc1cc(C(F)(F)F)ncc1O[C@H]1CCC2(C1)CN(C(=O)N1CC3(CC(c4nc(C5(O)CC5)n[nH]4)C3)C1)C2 [Example 696] | 42.2
CS(=O)(=O)c1ccc(CC2CC3(C2)CN(C(=O)N2CC4(CC(c5nnc(C6CC6)[nH]5)C4)C2)C3)cc1 [compound 12] | 0.81
O=C(N1CC2(CC(Cc3cc(F)cc(S(=O)(=O)C(F)(F)F)c3)C2)C1)N1CC2(CC(c3nc(C4CC4)n[nH]3)C2)C1 [compound 654] | 0.04
CC(C)(Oc1ccc(C2CN(C(=O)N3CC4(CC(c5nnc(C6CC6)[nH]5)C4)C3)C2)cc1)C(F)(F)F [compound 366] | 0.08
CS(=O)(=O)c1cc(OC(F)(F)F)ccc1OCC1CCN(C(=O)N2CC3(CC(c4nnc(C5CC5)[nH]4)C3)C2)CC1 [Example 917, [6-(5-cyclopropyl-4H-1,2,4-triazol-3-yl)-2-azaspiro[3.3]heptan-2-yl]-[4-[[2-mesyl-4-(trifluoromethoxy)phenoxy]methyl]piperidino]methanone] | 237
COCn1ccnc1-c1ccccc1CN1CC2(C1)CN(C(=O)N1CC3(CC(c4nnc(C5CC5)[nH]4)C3)C1)C2 [compound 175] | 34.3
O=C(N1CC2(CC(Oc3cc(C(F)(F)F)ccn3)C2)C1)N1CC2(CC(c3nc(C4CC4)n[nH]3)C2)C1 [compound 969] | 0.42
O=C(N1CC2(CC(Cc3ccc(C(F)(F)F)cn3)C2)C1)N1CC2(CC(c3nc(C4CC(F)(F)C4)n[nH]3)C2)C1 [compound 661] | 21.9
O=C(N1CC2(CC(c3nc(C4CC4)n[nH]3)C2)C1)N1CC2(CN(Cc3nc[nH]c3C(F)(F)F)C2)C1 [compound 795] | 33.3
O=C(N1CC2(CC(c3nc(C4CC4)n[nH]3)C2)C1)N1CC2(CN(Cc3nc(CC(F)(F)F)no3)C2)C1 [compound 695] | 43.8
Cn1ncc(CN2CC3(C2)CN(C(=O)N2CC4(CC(c5nc(C6CC6)n[nH]5)C4)C2)C3)c1S(N)(=O)=O [compound 580] | 679
O=C(N1CC2(CC(c3nc(C4CC(F)(F)C4)n[nH]3)C2)C1)N1CC2(CN(Cc3cnc(C(F)(F)F)cn3)C2)C1 [compound 750] | 445
CS(=O)(=O)c1ccc(CC2CC3(C2)CN(C(=O)N2CC4(CC(c5nc(C6COC6)n[nH]5)C4)C2)C3)cc1 [compound 817] | 180
O=C(N1CC2(CC(Oc3ncc(F)cc3Cl)C2)C1)N1CC2(CC(c3nc(C4CC4)n[nH]3)C2)C1 [compound 622] | 0.63
O=C(N1CC2(CCC(Cc3ccc(Cl)cn3)CC2)C1)N1CC2(CC(c3nc(C4CC(F)(F)C4)n[nH]3)C2)C1 [compound 756] | 98.5
NC(=O)[C@@H]1CCCN1c1ccc(C2CN(C(=O)N3CC4(CC(c5nnc(C6CC6)[nH]5)C4)C3)C2)cc1 [Example 397, (2S)-1-[4-[1-[6-(5-cyclopropyl-4H-1,2,4-triazol-3-yl)-2-azaspiro[3.3]heptane-2-carbonyl]azetidin-3-yl]phenyl]pyrrolidine-2-carboxamide] | 2.42
O=C(N1CC(OCc2ccc(OC(F)(F)F)cc2)C1)N1CC2(CC(c3nnc(C4CC4)[nH]3)C2)C1 [compound 315] | 4.93
O=C(c1cccc(F)c1)N1CCN(C(=O)N2CC3(CC(c4nnc(C5CC5)[nH]4)C3)C2)CC1 [Example 979, [4-[6-(5-cyclopropyl-4H-1,2,4-triazol-3-yl)-2-azaspiro[3.3]heptane-2-carbonyl]piperazino]-(3-fluorophenyl)methanone] | 2940
O=C(N1CC2(CCC(Cc3cnc(C(F)(F)F)cn3)CC2)C1)N1CC2(CC(c3nnc(C4CC4)[nH]3)C2)C1 [compound 136] | 0.57
O=C(N1CCN(Cc2ccc(C(F)(F)F)cn2)CC1)N1CC2(CC(c3nnc(C4CC4)[nH]3)C2)C1 [Example 876] | 806
CC(C)c1cc(C(C)C)n(-c2ccc(C3CN(C(=O)N4CC5(CC(c6nnc(C7CC7)[nH]6)C5)C4)C3)cc2)n1 [compound 276] | 0.17
O=C(N1CC2(CC(Cc3ccc4ncnn4c3)C2)C1)N1CC2(CC(c3nc(C4CC4)n[nH]3)C2)C1 [compound 645] | 6.54

Structure (SMILES) | IC50 [nM]
O=C(N1CC2(CC(c3nnc(C4CC4)[nH]3)C2)C1)N1CC2(C1)CN(S(=O)(=O)c1ccc(F)c(F)c1)C2 [compound 106] | 20.6
O=C(N1CC2(CCN(S(=O)(=O)c3ccc(C(F)(F)F)cc3F)CC2)C1)N1CC2(CC(c3nnc(C4CC4)[nH]3)C2)C1 [compound 240] | 1.27
O=C(N1CC2(CC(c3nnc(C4(O)CC4)[nH]3)C2)C1)N1CC2(C1)CN(S(=O)(=O)c1ccccc1OC(F)(F)F)C2 [compound 95] | 47.5
O=C(N1CC(CCc2ccc(C(F)(F)F)cc2F)C1)N1CC2(CC(c3nc(C4(O)CC4)n[nH]3)C2)C1 [compound 349] | 2.48
O=C(N1CC2(CC(c3nc(C4CC4)n[nH]3)C2)C1)N1CC2(CN(Cc3ccc(OCC(F)(F)F)nc3)C2)C1 [compound 963] | 3.95
O=C(N1CC(C23CC(c4nnc(C5(C(F)(F)F)CC5)s4)(C2)C3)C1)N1CC2(CC(c3nc(C4(O)CC4)n[nH]3)C2)C1 [compound 447] | 101
O=C(N1CC(Oc2ccc(C(F)(F)F)cc2)C1)N1CC2(CC(c3nnc(C4(O)CC4)[nH]3)C2)C1 [compound 323] | 12.3
O=C(N1CC(C23CC(c4ccc(F)cc4)(C2)C3)C1)N1CC2(CC(c3nc(C4CC4)n[nH]3)C2)C1 [compound 773] | 1.31
O=C(N1CC2(CC(Cc3nc(C(F)(F)F)cs3)C2)C1)N1CC2(CC(c3nc(C4CC4)n[nH]3)C2)C1 [compound 704] | 0.3
N#Cc1ncc(CC2CC3(C2)CN(C(=O)N2CC4(CC(c5nnc(C6CC6)[nH]5)C4)C2)C3)cc1C(F)(F)F [compound 535] | 0.65
O=C(N1CC2(CC(Oc3ccc(C(F)(F)F)nn3)C2)C1)N1CC2(CC(c3nnc(C4CC4)[nH]3)C2)C1 [compound 78] | 3.92
O=C(N1CC2(CC(Cc3ccc4nc(C(F)(F)F)cn4c3)C2)C1)N1CC2(CC(c3nc(C4CC4)n[nH]3)C2)C1 [compound 990] | 0.59
Cn1ncc(C(F)(F)F)c1CN1CCC2(CC1)CN(C(=O)N1CC3(CC(c4nc(C5CC5)n[nH]4)C3)C1)C2 [compound 461] | 1
O=C(N1CC2(CCN(Cc3ccc(S(=O)(=O)C(F)(F)F)cc3)CC2)C1)N1CC2(CC(c3nnc(C4CC4)[nH]3)C2)C1 [compound 85] | 1.02
Cc1cc(C2CC2)n(-c2ccc(C3CN(C(=O)N4CC5(CC(c6nnc(C7CC7)[nH]6)C5)C4)C3)cc2)n1 [compound 287] | 0.13
O=C(N1CC2(CC(c3nnc(C4CC4)[nH]3)C2)C1)N1CC2(CC(S(=O)(=O)c3ccc(F)cc3Cl)C2)C1 [compound 356] | 11.7
O=C(N1CC2(CC(c3nc(C4CC4)n[nH]3)C2)C1)N1CC2(CN(Cc3cnc(C(F)(F)F)s3)C2)C1 [compound 784] | 5.18
O=C(N1CC2(CCC(Oc3ccc(C(F)(F)F)nn3)CC2)C1)N1CC2(CC(c3nnc(C4CCC4)[nH]3)C2)C1 [compound 52] | 18.7
CS(=O)(=O)c1cc(F)ccc1CC1CC2(C1)CN(C(=O)N1CC3(CC(c4nnc(C5CCC5)[nH]4)C3)C1)C2 [compound 25] | 4.48
N=S(=O)(c1cccc(OC(F)(F)F)c1)C1CC2(C1)CN(C(=O)N1CC3(CC(c4nnc(C5CC5)[nH]4)C3)C1)C2 (stereo not shown) [compound 575] | 4.02
N#Cc1cc(C(F)(F)F)ncc1C[C@@H]1CCC2(C1)CN(C(=O)N1CC3(CC(c4nnc(C5CC5)[nH]4)C3)C1)C2 [compound 669] | 0.65
